Assay results reported in patent US20250228873A1, “C25 R AND S ISOMERS OF AMINOSTEROLS AND METHODS OF MAKING AND USING THE SAME” (Enterin, Inc., priority 2022, published 2025).
Several values for one entry are separate records, joined by “and”; a condition that tells them apart may be missing. Equal values may be shown once. Read-outs that look alike come from different tables or passages of the source.

How the values were obtained:
[1] = target: T1, PTPN1/PTP1B (Homo sapiens, UniProt P18031); experiment: PTP1B inhibition, fluorescence time-course, 10-dose IC50 (Example 2); assay type: biochemical
T1 construct: The enzyme was the human truncated form (1-321), recombinantly produced in Escherichia coli; host or cells: Escherichia coli
T1 sequence (P18031 1-321): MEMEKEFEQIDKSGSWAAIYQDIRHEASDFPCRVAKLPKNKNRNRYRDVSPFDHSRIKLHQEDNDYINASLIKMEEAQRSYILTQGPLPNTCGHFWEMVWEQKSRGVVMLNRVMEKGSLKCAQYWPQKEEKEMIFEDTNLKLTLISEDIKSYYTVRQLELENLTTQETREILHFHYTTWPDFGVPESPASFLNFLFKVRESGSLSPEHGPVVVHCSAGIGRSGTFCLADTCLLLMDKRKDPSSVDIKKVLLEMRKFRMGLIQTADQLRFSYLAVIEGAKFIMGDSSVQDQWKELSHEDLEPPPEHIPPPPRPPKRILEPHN

[2] = Weight loss, i.p. once weekly over 6 weeks (FIG. 1C); assay type: in vivo, C57bl/6 male mice; conditions: intraperitoneal once weekly over 6 weeks
[3] = Weight loss, 3, 5, 10 mg/kg (FIG. 14); assay type: in vivo, C57bl/6 male mice; conditions: intraperitoneal 3, 5, 10 mg/kg once weekly over 2 weeks
[4] = Mouse weight after deuterated ENT-03 i.p. (FIG. 12); assay type: in vivo; conditions: i.p. to mice
From the text: The presence of the deuterium on the side chain likely slows the action of the 2-methylacyl-coenzyme A racemase on C-25, the subsequent action of the dehydrogenase that produces the 24,25-trans-unsaturated derivative by removing the deuterium atoms at C24 and C25, and the subsequent hydration and oxidation at the C24 bond catalyzed by the D-bifunctional protein. Instead, the metabolism of ENT-03D3 will begin with the oxidation at C24 by CYP46A1, yielding the following compound: […]

[5] = Pharmacokinetic profile, intravenous administration; assay type: in vivo, male SD Rats; conditions: I.V. 5 mg/kg, plasma; for MRT inf: read-out: MRTInf_obs
Protocol: The objective of this example was to determine the pharmacokinetic profile of ENT-03 (Compound III) via intravenous and oral administration in male SD Rats.
Animal feeding control: Animals were food fasted overnight prior to dosing and fed 4 hours after administration having free access to water.
PK Sample Analyses: Concentrations of ENT-03 (Compound III) in the plasma and dose samples were analyzed using a LC-MS/MS method. WinNonlin (Phoenix™, version 6.1) or other similar software was used for pharmacokinetic calculations. The following pharmacokinetic parameters were calculated, whenever possible from the plasma concentration versus time data.
IV Bolus administration: T1/2, C0, AUClast, AUCinf, MRTinf, Cl, Vss, Number of Points for Regression.
The pharmacokinetic data was described using descriptive statistics such as mean and standard deviation. All the residual biological samples were retained in the freezer ([…]) for a period of 6 months after testing.

[6] = individual rats (Rat 1-3), listed as ENT-03 (Compound III), 5 mg/kg
[7] = male, SD, rat, iv, 5 mg/kg, Mean
[8] = male, SD, rat, iv, 5 mg/kg, individual rats (Rat 1-3)

SMILES: CC(C)[C@@H](CC[C@@H](C)[C@H]1CC[C@H]2[C@@H]3[C@H](O)C[C@H]4C[C@@H](NCCCNCCCCNCCCN)CC[C@]4(C)[C@H]3CC[C@]12C)OS(=O)(=O)O (single isomer, unassigned) [ENT-02 (MSI-1436), trodusquemine]
- Slope (signal/min) ([1]; Conc 1.00E−04 M): −68 signal/min
- Slope (signal/min) ([1]; Conc 1.11E−05 M): 292 signal/min
- Slope (signal/min) ([1]; Conc 1.23E−06 M): 37260 signal/min
- Slope (signal/min) ([1]; Conc 1.37E−07 M): 40137 signal/min
- Slope (signal/min) ([1]; Conc 1.52E−08 M): 44021 signal/min
- Slope (signal/min) ([1]; Conc 3.33E−05 M): −440 signal/min
- Slope (signal/min) ([1]; Conc 3.70E−06 M): 16431 signal/min
- Slope (signal/min) ([1]; Conc 4.12E−07 M): 39959 signal/min
- Slope (signal/min) ([1]; Conc 4.57E−08 M): 42717 signal/min
- Slope (signal/min) ([1]; Conc 5.08E−09 M): 43513 signal/min
- HILLSLOPE ([1]; Table 5A): −2.19

SMILES: CC(CCC[C@@H](C)[C@H]1CCC2C3C(CC[C@@]21C)[C@@]1(C)CC[C@H](NCCCNCCCCNCCCN)C[C@@H]1C[C@H]3O)C(=O)O (single isomer, unassigned) [ENT-03]
- clinical appearance other than weight loss [2]: appeared clinically normal
- effect on weight [2]: dose dependent weight loss
- clinical appearance other than weight loss [3]: appeared clinically normal
- effect on weight [3]: dose dependent weight loss
- effect on weight [4]: loss of weight
- AUC_%Extrap_obs ([5]; Mean): 38.2%
- AUClast/D ([5]; Mean): 122000 h·ng/mL per mg/kg
- Cl_obs ([5]; Mean): 5.1 mL/h/kg
- Vss_obs ([5]; Mean): 0.125 L/kg
- AUCInf [5, 6]: 941.13 µg·h/mL and 1095.763 µg·h/mL
- AUC_%Extrap_obs [5, 6]: 39.6% and 35.4% and 39.7%
- AUClast [5, 6]: 608.321 µg·h/mL and 661.154 µg·h/mL
- AUClast/D [5, 6]: 112000 h·ng/mL per mg/kg and 122000 h·ng/mL per mg/kg and 132000 h·ng/mL per mg/kg
- C0 [5, 6]: 102.409 µg/mL and 76.2 µg/mL
- Cl_obs [5, 6]: 5.42 mL/h/kg and 5.31 mL/h/kg and 4.57 mL/h/kg
- MRTInf_obs [5, 6]: 22.9 h and 25.5 h
- T1/2 [5, 6]: 17.5 h and 18.6 h
- Vss_obs [5, 6]: 0.137 L/kg and 0.122 L/kg and 0.116 L/kg
- AUC(0-inf) [5, 7]: 986 µg·h/mL
- AUC(0-t) [5, 7]: 609 µg·h/mL
- half-life [5, 7]: 18.2 h
- C0 ([5]; male, SD, rat, iv, 5 mg/kg, Mean, read-out: C0): 86.3 µg/mL
- MRT inf [5, 7]: 24.6 h
- AUC(0-inf) [5, 8]: 922 µg·h/mL
- AUC(0-t) [5, 8]: 558 µg·h/mL
- half-life [5, 8]: 18.6 h
- C0 ([5]; male, SD, rat, iv, 5 mg/kg, individual rats (Rat 1-3), read-out: C0): 80.4 µg/mL
- MRT inf [5, 8]: 25.3 h
